Laboratory results as given in ChEMBL document CHEMBL5131570, “Discovery of Potent Small-Molecule USP8 Inhibitors for the Treatment of Breast Cancer through Regulating ERα Expression” (J Med Chem, 2022).
Activity calls are given as the source filed them.

Legend:
[1] = target: T1, Ubiquitin carboxyl-terminal hydrolase 8 (Homo sapiens, UniProt P40818); experiment: Binding affinity to N-terminal His6-tagged USP8 catalytic domain (734 to 1110 residues) (unknown origin) expressed in Escherichia coli BL21 (DE3) cells by surface plasmon resonance method
T1 sequence (P40818 whole entry): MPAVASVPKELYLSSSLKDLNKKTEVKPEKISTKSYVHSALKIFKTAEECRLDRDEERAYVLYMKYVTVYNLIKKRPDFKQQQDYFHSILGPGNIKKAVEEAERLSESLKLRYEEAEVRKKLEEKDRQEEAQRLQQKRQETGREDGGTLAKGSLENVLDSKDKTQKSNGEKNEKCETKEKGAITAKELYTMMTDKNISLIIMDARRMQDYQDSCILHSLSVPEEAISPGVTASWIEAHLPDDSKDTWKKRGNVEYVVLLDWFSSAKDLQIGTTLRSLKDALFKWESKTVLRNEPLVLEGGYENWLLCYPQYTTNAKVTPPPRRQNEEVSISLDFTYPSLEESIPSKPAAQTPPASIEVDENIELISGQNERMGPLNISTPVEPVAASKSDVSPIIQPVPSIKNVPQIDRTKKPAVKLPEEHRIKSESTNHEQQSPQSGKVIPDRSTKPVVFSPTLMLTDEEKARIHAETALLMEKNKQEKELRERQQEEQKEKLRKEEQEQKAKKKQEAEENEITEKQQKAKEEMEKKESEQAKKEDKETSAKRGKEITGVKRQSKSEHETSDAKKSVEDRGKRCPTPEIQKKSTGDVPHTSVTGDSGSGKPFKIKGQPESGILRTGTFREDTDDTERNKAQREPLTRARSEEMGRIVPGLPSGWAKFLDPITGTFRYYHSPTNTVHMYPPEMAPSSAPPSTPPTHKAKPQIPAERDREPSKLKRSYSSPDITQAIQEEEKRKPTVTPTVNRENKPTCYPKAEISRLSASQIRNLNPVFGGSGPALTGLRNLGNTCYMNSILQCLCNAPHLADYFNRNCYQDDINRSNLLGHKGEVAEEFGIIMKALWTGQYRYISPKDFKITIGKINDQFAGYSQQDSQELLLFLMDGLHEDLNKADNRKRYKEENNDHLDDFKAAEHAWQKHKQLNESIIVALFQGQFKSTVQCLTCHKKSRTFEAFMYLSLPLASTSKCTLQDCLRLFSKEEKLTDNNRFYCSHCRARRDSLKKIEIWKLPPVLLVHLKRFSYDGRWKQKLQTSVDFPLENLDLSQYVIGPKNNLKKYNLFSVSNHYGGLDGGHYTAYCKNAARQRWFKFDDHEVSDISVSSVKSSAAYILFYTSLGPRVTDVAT

[2] = target: T2, Ubiquitin carboxyl-terminal hydrolase 8 (Homo sapiens) (UniProt P40818); experiment: Inhibition of N-terminal His6-tagged USP8 catalytic domain (734 to 1110 residues) in HEK293T cell lysates up to 100 uM in presence of HA-Ub-VS probe by USP8 antibody based Western blotting assay; type: subcellular
T2 sequence (whole entry): T1 sequence (P40818 whole entry)

MCF7 [3] = experiment: Antiproliferative activity against human MCF7 cells assessed as reduction in colony formation at 3 uM incubated for 7 days by crystal violet staining based colony formation assay; type: functional, cell-based; details: time 7.0 day
MCF7 [4] = experiment: Induction of apoptosis in human MCF7 cells assessed as increase in apoptotic cells at 0.5 uM incubated for 12 hrs by AnnexinV-FITC/propidium iodide staining based flow cytometry relative to control (reference value: 2.00 %); type: functional
MCF7 [5] = experiment: Induction of apoptosis in human MCF7 cells assessed as reduction in EGFR expression level up to 5 uM incubated for 24 hrs by Western blotting analysis; type: functional, cell-based
MCF7 [6] = experiment: Induction of apoptosis in human MCF7 cells assessed as reduction in ErbB3 expression level up to 5 uM incubated for 24 hrs by Western blotting analysis; type: functional, cell-based
MCF7 [7] = experiment: Downregulation of ERalpha expression in human MCF7 cells measured after 24 hrs by Western blotting analysis; type: functional, cell-based; details: dose 0.5-5 µM, DDE = dose-dependent effect
MCF7 [8] = experiment: Downregulation of progesterone receptor expression in human MCF7 cells measured after 24 hrs by Western blotting analysis; type: functional, cell-based; details: dose 0.5-5 µM, DDE = dose-dependent effect
MCF7 [9] = experiment: Downregulation of ERalpha expression in human MCF7 cells assessed as protein stability by measuring reduction in half life measured up to 24 hrs in presence of cycloheximide by Western blotting analysis; type: functional, cell-based
MCF7 [10] = experiment: Downregulation of progesterone receptor expression in human MCF7 cells assessed as protein stability by measuring reduction in half life measured up to 24 hrs in presence of cycloheximide by Western blotting analysis; type: functional, cell-based
MCF7 [11] = experiment: Antitumor activity against human MCF7 cells xenografted in BALB/c mouse assessed as reduction of ErbB2 phosphorylation in tumor tissue at 5 to 20 mg/kg, ip administered via gavage every other day for 14 days by immunohistochemistry analysis; type: functional, organism-based; details: dose 5-20 mg/kg, time 14.0 day
MCF7 [12] = experiment: Antitumor activity against human MCF7 cells xenografted in BALB/c mouse assessed as reduction of ERalpha phosphorylation in tumor tissue at 5 to 20 mg/kg, ip administered via gavage every other day for 14 days by immunohistochemistry analysis; type: functional, organism-based; details: dose 5-20 mg/kg, time 14.0 day
[13] = Toxicity in BALB/c mouse xenografted with human MCF7 cells assessed as effect on spleen at 5 to 20 mg/kg, […] every other day measured after 14 days by hematoxylin and eosin staining based analysis; type: organism-based; details: in vivo, 336 h, dose 5-20 mg/kg, time 14 day
[14] = Toxicity in BALB/c mouse xenografted with human MCF7 cells assessed as effect on lung at 5 to 20 mg/kg, […] every other day measured after 14 days by hematoxylin and eosin staining based analysis; type: organism-based; details: in vivo, 336 h, dose 5-20 mg/kg, time 14 day
[15] = Toxicity in BALB/c mouse xenografted with human MCF7 cells assessed as effect on alanine aminotransferase level at 5 to 20 mg/kg, […] every other day measured after 14 days; type: organism-based; details: in vivo, 336 h, dose 5-20 mg/kg, time 14 day

Cc1n[nH]c(C)c1Oc1c(O)cc(O)c2c(=O)cc(-c3ccc(N4CCN(c5ccccn5)CC4)cc3)oc12
active: inhibition [2] | Activity (MCF7 [3]) | Activity (MCF7 [5]) | Activity (MCF7 [6]) | Activity (MCF7 [7]) Dde | Activity (MCF7 [8]) Dde | Activity (MCF7 [9]) | Activity (MCF7 [10]) | Activity (MCF7 [11]) | Activity (MCF7 [12])
2.5%: Activity (MCF7 [4])
Non-Toxic: Activity [13] | Activity [14] | Activity [15]
4.7 µM: Kd [1]
